Test results from patent US20100267561A1, “HERBICIDAL PYRIDAZINONE DERIVATIVES” (priority 2007, published 2010).

What was measured:
[1] = tested on: blackgrass (Alopecurus myosuroides); test: Test A pre-/postemergence plant response; type: in vivo
Method in brief: (§1)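 Ratings are visual, 0–100, where 100 means complete control and 0 no effect, taken roughly 10 days after treatment by comparison with untreated controls. Formulation: non-phytotoxic solvent mixture with surfactant.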

[2] = tested on: canarygrass (Phalaris minor); test: Test A pre-/postemergence plant response; type: in vivo
Method in brief: as §1

[3] = Postemergence, 31 g ai/ha, 0 to 100 scale, 0 no effect, 100 complete control
[4] = Postemergence, 125 g ai/ha, 0 to 100 scale, 0 no effect, 100 complete control
[5] = Preemergence, 31 g ai/ha, 0 to 100 scale, 0 is no effect, 100 is complete control
[6] = Preemergence, 125 g ai/ha, 0 to 100 scale (0 no effect, 100 complete control)
[7] = Postemergence, 500 g ai/ha, 0 to 100 scale, 0 no effect, 100 complete control
[8] = Preemergence, 500 g ai/ha, 0 to 100 scale (0 no effect, 100 complete control)

| SMILES | Plant response rating, Blackgrass [1, 3] | Plant response rating, Blackgrass [1, 4] | Plant response rating, Blackgrass [1, 5] | Plant response rating, Blackgrass [1, 6] | Plant response rating, Canarygrass [2, 3] | Plant response rating, Canarygrass [2, 4] | Plant response rating, Canarygrass [2, 5] | Plant response rating, Canarygrass [2, 6] | Plant response rating, Blackgrass [1, 7] | Plant response rating, Blackgrass [1, 8] | Plant response rating, Canarygrass [2, 7] | Plant response rating, Canarygrass [2, 8] |
| --- | --- | --- | --- | --- | --- | --- | --- | --- | --- | --- | --- | --- |
| CCCc1cc(-c2ccc(C(F)(F)F)cc2)nn1-c1c(O)cnn(C)c1=O [Compound 72] | 80 | 100 | 70 | 100 | 40 | 100 | 50 | 80 | – | – | – | – |
| CCc1cc(-c2ccc(Br)cc2)nn1-c1c(O)cnn(CC(F)(F)F)c1=O [Compound 73] | 90 | 90 | 60 | 90 | 20 | 100 | 30 | – | – | – | – | – |
| CCc1cc(-c2ccc(Br)cc2)nn1-c1c(O)c(C)nn(C)c1=O [Compound 74] | 100 | 100 | 100 | 100 | 100 | 100 | 80 | 100 | – | – | – | – |
| CCCc1cc(-c2ccc(Cl)cc2)nn1-c1c(O)cnn(C)c1=O [Compound 76] | 90 | 100 | – | 90 | 40 | 100 | 30 | 70 | – | – | – | – |
| Cc1cc(-c2ccc(Br)cc2)nn1-c1c(O)cnn(C2CCCCO2)c1=O (stereo not shown) [Compound 77, 4-[3-(4-bromophenyl)-5-methyl-1H-pyrazol-1-yl]-5-hydroxy-2-(tetrahydro-2H-pyran-2-yl)-3(2H)-pyridazinone] | – | 100 | – | 80 | – | 60 | – | – | 100 | 100 | 100 | 90 |
| Cc1nn(C)c(=O)c(-c2nc(-c3ccc(Cl)cc3)sc2C)c1O [Compound 79, 4-[2-(4-chlorophenyl)-5-methyl-4-thiazolyl]-5-hydroxy-2,6-dimethyl-3(2H)-pyridazinone] | 60 | 100 | 80 | 100 | 40 | 90 | 0 | 100 | – | – | – | – |
| COc1nn(C)c(=O)c(-n2nc(-c3ccc(Br)cc3)cc2C)c1O [Compound 82] | 100 | 100 | 70 | 100 | 100 | 100 | 20 | 100 | – | – | – | – |
| CCc1c(C)c(-c2ccc(Br)cc2)nn1-c1c(O)cnn(C)c1=O [Compound 83] | 90 | 100 | 20 | 100 | 70 | 100 | – | 90 | – | – | – | – |
| Cc1cn(-c2ccc(C(F)(F)F)cc2)nc1-c1c(O)cnn(C)c1=O [Compound 85, 5-hydroxy-2-methyl-4-[4-methyl-1-[4-(trifluoromethyl)phenyl]-1H-pyrazol-3-yl]-3(2H)-pyridazinone] | 0 | 40 | 0 | 40 | 0 | 20 | 40 | 70 | – | – | – | – |
| Cn1ncc(O)c(-c2nn(-c3ccc(C(F)(F)F)cc3)cc2Br)c1=O [Compound 87, 4-[4-bromo-1-[4-(trifluoromethyl)phenyl]-1H-pyrazol-3-yl]-5-hydroxy-2-methyl-3(2H)-pyridazinone] | 30 | 80 | 30 | 90 | 10 | 70 | 0 | 90 | – | – | – | – |
